Results taken from US12030879B2, “Sulfonyl acetamides as NLRP3 inhibitors” (Inflazome Limited, priority 2018, dated 2024).
pIC50: −log10 of the molar value.

target: T1, NLRP3 (Homo sapiens, UniProt Q96P20); experiment: THP-1 cells pyroptosis assay; type: cell-based; settings: LPS 1 μg/ml, compound 3 hrs, nigericin 5 μM 1 hr, resazurin readout
T1 construct: Seed THP-1 cells (25,000 cells/well) containing 1.0 μg/ml LPS in 40 μl of RPMI medium; host or cells: THP-1 cells
Procedure: THP-1 cells (ATCC #TIB-202) were grown in RPMI containing L-glutamine (Gibco #11835) supplemented with 1 mM sodium pyruvate (Sigma #S8636) and penicillin (100 units/ml)/streptomycin (0.1 mg/ml) (Sigma #P4333) in 10% Fetal Bovine Serum (FBS) (Sigma #F0804). The cells were routinely passaged and grown to confluency (10^6 cells/ml). On the day of the experiment, THP-1 cells were harvested and resuspended into RPMI medium (without FBS). The cells were then counted and viability (>90%) checked by Trypan blue (Sigma #T8154). Appropriate dilutions were made to give a concentration of 625,000 cells/ml. To this diluted cell solution was added LPS (Sigma #L4524) to give a 1 μg/ml Final Assay Concentration (FAC). 40 μl of the final preparation was aliquoted into each well of a 96-well plate. The plate thus prepared was used for compound screening.
The following method step-by-step assay was followed for compound screening. • 1. Seed THP-1 cells (25,000 cells/well) containing 1.0 μg/ml LPS in 40 μl of RPMI medium (without FBS) in 96-well, black walled, clear bottom cell culture plates coated with poly-D-lysine (VWR #734-0317) • 2. Add 5 μl compound (8 points half-log dilution, with 10 μM top dose) or vehicle (DMSO 0.1% FAC) to the appropriate wells • 3. Incubate for 3 hrs at 37° C., 5% CO2 • 4. Add 5 μl nigericin (Sigma #N7143) (FAC 5 μM) to all wells • 5. Incubate for 1 hr at 37° C., 5% CO2 • 6. At the end of the incubation period, spin plates at 300×g for 3 mins and remove supernatant • 7. Then add 50 μl of resazurin (Sigma #R7017)(FAC 100 μM resazurin in RPMI medium without FBS) and incubate plates for a further 1-2 hrs at 37° C. and 5% CO2 • 8. Plates were read in an Envision reader at Ex 560 nm and Em 590 nm • 9. IC50 data is fitted to a non-linear regression equation (log inhibitor vs response-variable slope 4-parameters) 96-well Plate Map

T1 sequence (Q96P20 whole entry): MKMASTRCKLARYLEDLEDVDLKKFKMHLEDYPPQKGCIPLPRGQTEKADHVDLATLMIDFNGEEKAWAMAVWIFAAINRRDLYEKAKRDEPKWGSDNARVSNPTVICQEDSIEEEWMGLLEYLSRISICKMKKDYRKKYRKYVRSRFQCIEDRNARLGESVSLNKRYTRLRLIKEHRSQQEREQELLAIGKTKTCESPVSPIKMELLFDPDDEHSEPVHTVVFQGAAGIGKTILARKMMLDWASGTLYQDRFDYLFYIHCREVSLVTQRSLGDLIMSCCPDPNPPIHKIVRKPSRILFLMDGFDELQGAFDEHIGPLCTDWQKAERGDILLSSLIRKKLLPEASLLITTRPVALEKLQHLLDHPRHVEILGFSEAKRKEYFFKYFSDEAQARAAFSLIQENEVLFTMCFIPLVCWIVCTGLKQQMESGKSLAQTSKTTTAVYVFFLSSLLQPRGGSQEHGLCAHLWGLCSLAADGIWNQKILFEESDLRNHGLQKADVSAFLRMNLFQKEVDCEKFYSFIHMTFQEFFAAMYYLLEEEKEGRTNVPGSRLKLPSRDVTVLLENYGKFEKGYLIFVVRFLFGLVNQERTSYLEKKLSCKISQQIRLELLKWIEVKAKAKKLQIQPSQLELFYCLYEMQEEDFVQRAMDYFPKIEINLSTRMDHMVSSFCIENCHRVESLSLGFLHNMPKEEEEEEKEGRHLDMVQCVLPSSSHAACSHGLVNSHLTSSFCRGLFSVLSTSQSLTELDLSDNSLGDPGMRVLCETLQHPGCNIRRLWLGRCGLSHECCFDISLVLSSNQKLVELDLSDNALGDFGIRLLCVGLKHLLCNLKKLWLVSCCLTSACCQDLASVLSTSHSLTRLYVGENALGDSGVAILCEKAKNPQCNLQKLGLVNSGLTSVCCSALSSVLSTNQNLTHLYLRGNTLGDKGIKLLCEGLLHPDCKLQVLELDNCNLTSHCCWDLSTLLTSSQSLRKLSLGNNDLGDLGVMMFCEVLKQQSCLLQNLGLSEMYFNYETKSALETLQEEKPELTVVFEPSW

**Q.** How did the pIC50 turn out when COc1cc(-c2cc(F)cc(C(C)(C)F)c2CC(=O)NS(=O)(=O)c2ccc(C(C)(C)O)cc2C)ccn1 [Example 86, 2-(4-Fluoro-2-(2-fluoropropan-2-yl)-6-(2-methoxypyridin-4-yl)phenyl)-N-((4-(2-hydroxypropan-2-yl)-2-methylphenyl)sulfonyl)acetamide] was run?
**A.** The pIC50 was ≥ 5.30.

**Q.** How did the pIC50 turn out when COc1cc(-c2cc(F)cc(C(C)(C)F)c2CC(=O)NS(=O)(=O)c2cc(C(C)(C)O)cs2)ccn1 [Example 87, 2-(4-Fluoro-2-(2-fluoropropan-2-yl)-6-(2-methoxypyridin-4-yl)phenyl)-N-((4-(2-hydroxypropan-2-yl)thiophen-2-yl)sulfonyl)acetamide] was run?
**A.** Its pIC50 is ≥ 6.30.

**Q.** COc1cc(-c2cc(F)cc(C(C)C)c2CC(=O)NS(=O)(=O)c2ccc(C(C)(C)NC(C)=O)c(F)c2)ccn1 [Example 88, N-((4-(2-Acetamidopropan-2-yl)-3-fluorophenyl)sulfonyl)-2-(4-fluoro-2-isopropyl-6-(2-methoxypyridin-4-yl)phenyl)acetamide] was tested. Which pIC50 did it give?
**A.** Its pIC50 is ≥ 5.30.

**Q.** How did the pIC50 turn out when COc1cc(-c2cc(F)cc(C(C)C)c2CC(=O)NS(=O)(=O)c2cccc(C(C)(C)O)c2)ccn1 [Example 89, 2-(4-Fluoro-2-isopropyl-6-(2-methoxypyridin-4-yl)phenyl)-N-((3-(2-hydroxypropan-2-yl)phenyl)sulfonyl)acetamide] was run?
**A.** Its pIC50 is ≥ 6.00.

**Q.** With COc1cc(-c2cc(F)cc(C(C)C)c2CC(=O)NS(=O)(=O)c2ccc(C(C)(C)NC(=O)OC(C)(C)C)c(F)c2)ccn1 [Example 90, tert-Butyl (2-(2-fluoro-4-(N-(2-(4-fluoro-2-isopropyl-6-(2-methoxypyridin-4-yl)phenyl)acetyl)sulfamoyl)phenyl)propan-2-yl)carbamate] as the compound, how does the pIC50 read?
**A.** Its pIC50 is ≥ 6.30.

**Q.** COc1cc(-c2cc(F)cc(C(C)C)c2CC(=O)NS(=O)(=O)c2ccc(C(C)(C)N(C)C)c(F)c2)ccn1 [Example 91, N-((4-(2-(Dimethylamino)propan-2-yl)-3-fluorophenyl)sulfonyl)-2-(4-fluoro-2-isopropyl-6-(2-methoxypyridin-4-yl)phenyl)acetamide] was tested. Which pIC50 did it give?
**A.** Its pIC50 is ≥ 5.30.

**Q.** With COC(=O)c1cc(S(=O)(=O)NC(=O)Cc2c(-c3ccnc(OC)c3)cc(F)cc2C(C)C)ccc1F [Example 92, Methyl 2-fluoro-5-(N-(2-(4-fluoro-2-isopropyl-6-(2-methoxypyridin-4-yl)phenyl)acetyl)sulfamoyl)benzoate] as the compound, how does the pIC50 read?
**A.** The pIC50 was ≥ 5.30.

**Q.** COc1cc(-c2cc(F)cc(C(C)C)c2CC(=O)NS(=O)(=O)c2ccc(Cl)cc2)ccn1 [Example 93, N-((4-Chlorophenyl)sulfonyl)-2-(4-fluoro-2-isopropyl-6-(2-methoxypyridin-4-yl)phenyl)acetamide] was tested. Which pIC50 did it give?
**A.** The pIC50 was ≥ 6.00.

**Q.** COc1cc(-c2cc(F)cc(C(C)C)c2CC(=O)NS(=O)(=O)c2cnc3c(c2)c(C)nn3C)ccn1 [Example 94, N-((1,3-Dimethyl-1H-pyrazolo[3,4-b]pyridin-5-yl)sulfonyl)-2-(4-fluoro-2-isopropyl-6-(2-methoxypyridin-4-yl)phenyl)acetamide] was tested. Which pIC50 did it give?
**A.** Its pIC50 is ≥ 6.00.

**Q.** With COc1cc(-c2cc(F)cc(C(C)C)c2CC(=O)NS(=O)(=O)c2ccc(NC(C)=O)cc2)ccn1 [Example 95, N-((4-Acetamidophenyl)sulfonyl)-2-(4-fluoro-2-isopropyl-6-(2-methoxypyridin-4-yl)phenyl)acetamide] as the compound, how does the pIC50 read?
**A.** The pIC50 was ≥ 5.00.

**Q.** How did the pIC50 turn out when COc1cc(-c2cc(F)cc(C(C)C)c2CC(=O)NS(=O)(=O)c2ccc(C(=O)N(C)C)c(Cl)c2)ccn1 [Example 96, 2-Chloro-4-(N-(2-(4-fluoro-2-isopropyl-6-(2-methoxypyridin-4-yl)phenyl)acetyl)sulfamoyl)-N,N-dimethylbenzamide] was run?
**A.** Its pIC50 is ≥ 5.00.

**Q.** With COc1ccc(-c2cc(F)cc(C(C)C)c2CC(=O)NS(=O)(=O)c2ccc(C(C)(C)O)cc2C)cn1 [Example 97, 2-(4-Fluoro-2-isopropyl-6-(6-methoxypyridin-3-yl)phenyl)-N-((4-(2-hydroxypropan-2-yl)-2-methylphenyl)sulfonyl)acetamide] as the compound, how does the pIC50 read?
**A.** Its pIC50 is ≥ 5.30.
